Experimental data: ChEMBL document CHEMBL3751668, “A Pyrazolo[3,4-d]pyrimidin-4-amine Derivative Containing an Isoxazole Moiety Is a Selective and Potent Inhibitor of RET Gatekeeper Mutants” (J Med Chem, 2016); call rule not given here
pIC50: −log10 of the molar value. Values belong to the molecule of their own block, whether it stands above or below them.

Key:
[1] = system: Proto-oncogene tyrosine-protein kinase receptor Ret (Homo sapiens), P07949 [V804M]; conditions: BaF3
[2] = Cytotoxicity against human Nthy-ori 3-1 cells after 10 days by MTT assay; type: cell-based
[3] = target: Proto-oncogene tyrosine-protein kinase receptor Ret (Homo sapiens, UniProt P07949, V804M); test: Inhibition of human Ret V804M mutant by radiometric assay in presence of [gamma-33P]-ATP
[4] = system: Proto-oncogene tyrosine-protein kinase receptor Ret (Homo sapiens), P07949 [C634W]; conditions: TT
Description: Inhibition of RET C634W mutant in human TT cells assessed as cell growth inhibition after 10 days by MTT assay

[5] = Cytotoxicity against mouse BAF3 cells after 48 hrs by MTT assay; type: cell-based
[6] = target: T1, Proto-oncogene tyrosine-protein kinase receptor Ret (Homo sapiens, UniProt P07949); test: Inhibition of human wild type RET by radiometric assay in presence of [gamma-33P]-ATP
[7] = target: T1, Proto-oncogene tyrosine-protein kinase receptor Ret; conditions: BaF3
Description: Inhibition of wild type TEL-fused RET (unknown origin) expressed in mouse BA/F3 cells assessed as cell growth inhibition after 48 hrs by MTT assay

[8] = Cell cycle arrest in human Nthy-ori 3-1 cells assessed as accumulation at G2 phase at 10 uM after 24 hrs by […] staining-based flow cytometric analysis; conditions: nthy-ori 3-1, 24 h
[9] = system: Proto-oncogene tyrosine-protein kinase receptor Ret (Homo sapiens), P07949 [V804L]; conditions: BaF3
[10] = target: Voltage-gated inwardly rectifying potassium channel KCNH2 (Homo sapiens, UniProt Q12809); test: Inhibition of human ERG assessed as prolongation of QT-interval at 100 uM by patch-clamp assay
[11] = target: Proto-oncogene tyrosine-protein kinase receptor Ret (Homo sapiens, UniProt P07949, S891A); test: Inhibition of human Ret S891A mutant by radiometric assay in presence of [gamma-33P]-ATP
[12] = Ratio of GI50 for human Nthy-ori-3-1 cells to GI50 for RET C634W mutant-mediated human TT cell growth inhibition
TT = test: Cytotoxicity against human TT cells assessed as suppression of anchorage-independent growth at 0.3 to 1 uM for 30 days by soft agar assay; type: functional
[13] = target: Proto-oncogene tyrosine-protein kinase receptor Ret (Homo sapiens, UniProt P07949, Y791F); test: Inhibition of human Ret Y791F mutant by radiometric assay in presence of [gamma-33P]-ATP
[14] = Inhibition of recombinant human PKA by radiometric assay in presence of [gamma-33P]-ATP
[15] = target: Ribosomal protein S6 kinase alpha-1 (Homo sapiens, UniProt Q15418); test: Inhibition of recombinant human RSK1 by radiometric assay in presence of [gamma-33P]-ATP
[16] = target: Dual specificity mitogen-activated protein kinase kinase 2 (Homo sapiens, UniProt P36507); test: Inhibition of recombinant human MEK2 by radiometric assay in presence of [gamma-33P]-ATP
[17] = target: Vascular endothelial growth factor receptor 3 (Homo sapiens, UniProt P35916); test: Inhibition of recombinant human FLT4 by radiometric assay in presence of [gamma-33P]-ATP
[18] = Half life in human liver microsomes; type: ADME
Cytochrome P450 2C19 = Cytochrome P450 2C19 (Homo sapiens, UniProt P33261); test: Inhibition of CYP2C19 (unknown origin); type: ADME
[19] = target: Ribosomal protein S6 kinase beta-1 (Homo sapiens, UniProt P23443); test: Inhibition of recombinant human p70S6K by radiometric assay in presence of [gamma-33P]-ATP
[20] = system: Proto-oncogene tyrosine-protein kinase receptor Ret (Homo sapiens), P07949 [S891A]; conditions: BaF3
[21] = target: Proto-oncogene tyrosine-protein kinase receptor Ret (Homo sapiens, UniProt P07949, V804L); test: Inhibition of human Ret V804L mutant by radiometric assay in presence of [gamma-33P]-ATP
[22] = target: Tyrosine-protein kinase HCK (Homo sapiens, UniProt P08631); test: Inhibition of recombinant human HCK by radiometric assay in presence of [gamma-33P]-ATP
[23] = target: T2, Vascular endothelial growth factor receptor 2 (Homo sapiens, UniProt P35968); test: Inhibition of recombinant human VGFR2 by radiometric assay in presence of [gamma-33P]-ATP
[24] = target: Tyrosine-protein kinase Fgr (Homo sapiens, UniProt P09769); test: Inhibition of recombinant human FGR by radiometric assay in presence of [gamma-33P]-ATP
Cytochrome P450 1A2 = Cytochrome P450 1A2 (Homo sapiens, UniProt P05177); test: Inhibition of CYP1A2 (unknown origin); type: ADME
[25] = target: Proto-oncogene tyrosine-protein kinase receptor Ret (Homo sapiens, UniProt P07949, G691S); test: Inhibition of human Ret G691S mutant by radiometric assay in presence of [gamma-33P]-ATP
[26] = Induction of apoptosis in human Nthy-ori 3-1 cells at 10 uM after 48 hrs by annexinV/PI staining-based flow cytometric analysis; type: cell-based; conditions: nthy-ori 3-1, 48 h
[27] = target: T2, Vascular endothelial growth factor receptor 2; test: Inhibition of TEL-fused VEGFR2 (unknown origin) expressed in mouse BA/F3 cells assessed as cell growth inhibition; type: cell-based; conditions: baf3
[28] = target: Proto-oncogene tyrosine-protein kinase receptor Ret (Homo sapiens, UniProt P07949, M918T); test: Inhibition of human Ret M918T mutant by radiometric assay in presence of [gamma-33P]-ATP
Cytochrome P450 2C9 = Cytochrome P450 2C9 (Homo sapiens, UniProt P11712); test: Inhibition of CYP2C9 (unknown origin); type: ADME
Cytochrome P450 3A4 = Cytochrome P450 3A4 (Homo sapiens, UniProt P08684); test: Inhibition of CYP3A4 (unknown origin); type: ADME
[29] = target: Dual specificity mitogen-activated protein kinase kinase 1 (Homo sapiens, UniProt Q02750); test: Inhibition of recombinant human MEK1 by radiometric assay in presence of [gamma-33P]-ATP
Cytochrome P450 2D6 = Cytochrome P450 2D6 (Homo sapiens, UniProt P10635); test: Inhibition of CYP2D6 (unknown origin); type: ADME
[30] = Induction of apoptosis in human Nthy-ori 3-1 cells at 1 to 10 uM after 48 hrs by annexinV/PI staining-based flow cytometric analysis; type: cell-based; conditions: nthy-ori 3-1, 48 h
[31] = Cell cycle arrest in human Nthy-ori 3-1 cells at 1 to 10 uM after 24 hrs by […] staining-based flow cytometric analysis; conditions: nthy-ori 3-1, 24 h

Chain of Proto-oncogene tyrosine-protein kinase receptor Ret (Homo sapiens), P07949 [V804M] (P07949 whole entry V804M): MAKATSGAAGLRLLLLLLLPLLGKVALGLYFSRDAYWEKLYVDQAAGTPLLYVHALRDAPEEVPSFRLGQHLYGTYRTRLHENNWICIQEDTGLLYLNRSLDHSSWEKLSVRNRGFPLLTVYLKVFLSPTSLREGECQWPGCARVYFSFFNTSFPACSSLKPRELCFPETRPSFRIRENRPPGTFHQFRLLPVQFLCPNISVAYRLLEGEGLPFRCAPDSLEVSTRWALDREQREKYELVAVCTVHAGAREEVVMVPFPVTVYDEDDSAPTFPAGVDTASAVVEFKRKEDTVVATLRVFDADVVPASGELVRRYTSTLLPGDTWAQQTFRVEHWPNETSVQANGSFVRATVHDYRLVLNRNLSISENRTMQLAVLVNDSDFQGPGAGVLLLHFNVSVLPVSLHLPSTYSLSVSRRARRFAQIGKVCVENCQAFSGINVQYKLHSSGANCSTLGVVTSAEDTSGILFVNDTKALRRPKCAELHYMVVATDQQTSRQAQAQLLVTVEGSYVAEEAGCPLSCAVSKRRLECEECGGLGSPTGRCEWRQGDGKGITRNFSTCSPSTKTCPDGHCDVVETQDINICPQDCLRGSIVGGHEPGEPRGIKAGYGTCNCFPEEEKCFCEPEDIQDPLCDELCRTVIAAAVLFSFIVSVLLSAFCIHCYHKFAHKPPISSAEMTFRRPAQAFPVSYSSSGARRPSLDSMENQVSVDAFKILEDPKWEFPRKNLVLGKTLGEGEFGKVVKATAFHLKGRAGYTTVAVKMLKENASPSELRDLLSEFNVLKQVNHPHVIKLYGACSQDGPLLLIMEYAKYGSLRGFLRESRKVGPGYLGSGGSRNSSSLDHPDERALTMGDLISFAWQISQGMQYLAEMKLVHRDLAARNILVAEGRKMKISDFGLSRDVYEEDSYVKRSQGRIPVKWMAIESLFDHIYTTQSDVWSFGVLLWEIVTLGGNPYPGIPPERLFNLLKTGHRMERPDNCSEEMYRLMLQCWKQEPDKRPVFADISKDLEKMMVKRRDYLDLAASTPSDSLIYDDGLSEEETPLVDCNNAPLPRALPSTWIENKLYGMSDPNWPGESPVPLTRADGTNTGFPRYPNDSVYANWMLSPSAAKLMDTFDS
Chain of Proto-oncogene tyrosine-protein kinase receptor Ret (Homo sapiens, UniProt P07949, V804M) (P07949 29-1114 V804M limits assumed): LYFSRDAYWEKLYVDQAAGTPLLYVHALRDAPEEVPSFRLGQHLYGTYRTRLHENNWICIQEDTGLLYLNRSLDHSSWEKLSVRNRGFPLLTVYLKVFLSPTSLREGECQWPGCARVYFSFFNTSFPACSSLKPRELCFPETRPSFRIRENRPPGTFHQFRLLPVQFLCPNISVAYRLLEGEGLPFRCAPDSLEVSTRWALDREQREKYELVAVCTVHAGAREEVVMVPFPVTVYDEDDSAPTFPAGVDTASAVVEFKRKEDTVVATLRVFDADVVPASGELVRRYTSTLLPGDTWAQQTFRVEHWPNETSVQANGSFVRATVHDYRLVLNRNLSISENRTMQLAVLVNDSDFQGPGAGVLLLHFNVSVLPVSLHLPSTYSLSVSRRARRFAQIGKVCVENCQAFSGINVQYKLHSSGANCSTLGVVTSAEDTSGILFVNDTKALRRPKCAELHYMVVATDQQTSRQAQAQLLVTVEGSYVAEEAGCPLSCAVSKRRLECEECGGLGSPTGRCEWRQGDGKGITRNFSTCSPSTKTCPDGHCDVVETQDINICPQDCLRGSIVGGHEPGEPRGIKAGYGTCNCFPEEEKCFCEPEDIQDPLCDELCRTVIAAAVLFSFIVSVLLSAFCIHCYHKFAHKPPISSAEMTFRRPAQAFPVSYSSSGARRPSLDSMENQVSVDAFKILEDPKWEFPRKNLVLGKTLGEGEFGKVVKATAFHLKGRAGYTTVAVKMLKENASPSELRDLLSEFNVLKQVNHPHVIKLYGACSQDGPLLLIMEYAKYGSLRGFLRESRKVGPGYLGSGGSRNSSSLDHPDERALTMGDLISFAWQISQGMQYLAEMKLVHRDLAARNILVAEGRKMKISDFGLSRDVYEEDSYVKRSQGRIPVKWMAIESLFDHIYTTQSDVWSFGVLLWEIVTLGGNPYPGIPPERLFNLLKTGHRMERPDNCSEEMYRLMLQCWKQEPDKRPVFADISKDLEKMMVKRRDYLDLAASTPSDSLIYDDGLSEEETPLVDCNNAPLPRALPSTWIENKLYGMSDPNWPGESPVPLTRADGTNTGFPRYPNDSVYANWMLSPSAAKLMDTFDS
T1 sequence (P07949 whole entry): as the sequence (P07949 whole entry V804M) above, with M804V counted along it
Chain of Proto-oncogene tyrosine-protein kinase receptor Ret (Homo sapiens), P07949 [C634W] (P07949 whole entry C634W): as the sequence (P07949 whole entry V804M) above, with C634W, M804V counted along it
Chain of Cytochrome P450 3A4 (P08684 whole entry): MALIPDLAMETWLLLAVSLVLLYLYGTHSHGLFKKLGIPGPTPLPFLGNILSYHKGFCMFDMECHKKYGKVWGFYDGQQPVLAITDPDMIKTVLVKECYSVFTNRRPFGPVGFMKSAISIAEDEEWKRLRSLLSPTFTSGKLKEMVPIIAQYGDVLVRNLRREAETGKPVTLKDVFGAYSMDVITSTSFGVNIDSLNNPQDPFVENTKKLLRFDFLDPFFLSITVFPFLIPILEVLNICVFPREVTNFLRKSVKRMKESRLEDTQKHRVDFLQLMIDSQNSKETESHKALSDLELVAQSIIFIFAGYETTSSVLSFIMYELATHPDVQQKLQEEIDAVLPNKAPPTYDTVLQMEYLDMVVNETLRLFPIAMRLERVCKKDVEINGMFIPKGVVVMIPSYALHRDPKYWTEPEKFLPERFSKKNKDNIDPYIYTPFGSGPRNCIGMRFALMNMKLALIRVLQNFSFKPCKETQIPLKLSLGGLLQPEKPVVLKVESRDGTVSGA

SMILES: CCc1cc(-c2nn(C(C)C)c3ncnc(N)c23)no1
GI50 [1]: 5770 nM
GI50 at 240 h [2]: 28600 nM
pIC50 [3]: 6.27
GI50 [4]: 2610 nM
GI50 at 48 h [5]: > 10000 nM
pIC50 [6]: 7.39
GI50 [7]: 1560 nM

SMILES: CC(C)n1nc(/C=N/O)c2c(N)ncnc21
GI50 [1]: > 10000 nM
GI50 at 240 h [2]: 107000 nM
pIC50 [3]: 5.43
GI50 [4]: > 10000 nM
GI50 at 48 h [5]: > 10000 nM
pIC50 [6]: 5.31
GI50 [7]: > 10000 nM

SMILES: CCCCCCCn1nc(-c2cc(C3CC3)on2)c2c(N)ncnc21
GI50 [1]: > 10000 nM
GI50 at 240 h [2]: 31600 nM
pIC50 [3]: 6.03
GI50 [4]: > 10000 nM
GI50 at 48 h [5]: > 10000 nM
pIC50 [6]: 7.02
GI50 [7]: > 10000 nM

SMILES: CC(C)n1nc(-c2cc(-c3ccccc3)on2)c2c(N)ncnc21
GI50 [1]: 4970 nM
GI50 at 240 h [2]: 5720 nM
GI50 [4]: > 10000 nM
GI50 at 48 h [5]: > 10000 nM
pIC50 [6]: 6.72
GI50 [7]: 3460 nM

SMILES: CC(C)n1nc(-c2cc(C3CCCCC3)on2)c2c(N)ncnc21
GI50 [1]: 4730 nM
GI50 at 240 h [2]: 4110 nM
GI50 [4]: > 10000 nM
GI50 at 48 h [5]: > 10000 nM
pIC50 [6]: 6.04
GI50 [7]: 9500 nM

SMILES: CC(C)n1nc(-c2cc(-c3ccc(F)cc3)on2)c2c(N)ncnc21
GI50 [1]: > 10000 nM
GI50 at 240 h [2]: 9770 nM
GI50 [4]: > 10000 nM
GI50 at 48 h [5]: > 10000 nM
pIC50 [6]: 6.82
GI50 [7]: > 10000 nM

SMILES: Cn1nc(-c2cc(C3CC3)on2)c2c(N)ncnc21
GI50 [1]: 5560 nM
GI50 at 240 h [2]: 28700 nM
pIC50 [3]: 6.74
GI50 [4]: 3510 nM
GI50 at 48 h [5]: > 10000 nM
pIC50 [6]: 7.57
GI50 [7]: 2670 nM

SMILES: CC(C)n1nc(/C=N/OCc2ccccc2)c2c(N)ncnc21
GI50 [1]: > 10000 nM
GI50 at 240 h [2]: 9850 nM
GI50 [4]: 9270 nM
GI50 at 48 h [5]: > 10000 nM
pIC50 [6]: 5.08
GI50 [7]: 7410 nM

Molecules with a lower GI50 [1], results first:

GI50 [1]: 2600 nM
GI50 [9]: 5430 nM
pIC50 [11]: 7.27
pIC50 [13]: 7.85
GI50 [20]: 350 nM
pIC50 [21]: 5.50
pIC50 [3]: 5.58
pIC50 [25]: 7.12
GI50 [4]: 2540 nM
pIC50 [28]: 7.24
GI50 [7]: 610 nM
SMILES: CC(C)n1nc(C#Cc2ccccc2)c2c(N)ncnc21
Activity (TT): 150 CFU
GI50 at 240 h [2]: 3580 nM
Activity [30]: Non-toxic
GI50 at 48 h [5]: 16100 nM
Activity [31]: Non-toxic

GI50 [1]: 1930 nM
pIC50 [3]: 7.39
GI50 [4]: 940 nM
pIC50 [6]: 8.30
GI50 [7]: 440 nM
SMILES: Nc1ncnc2c1c(-c1cc(C3CC3)on1)nn2C1CCOCC1
GI50 at 240 h [2]: 32900 nM
GI50 at 48 h [5]: > 10000 nM

GI50 [1]: 700 nM
pIC50 [3]: 5.23
GI50 [4]: 9260 nM
pIC50 [6]: 6.04
GI50 [7]: 1110 nM
SMILES: CC(C)n1nc(-c2cc(-c3ccccn3)on2)c2c(N)ncnc21
GI50 at 240 h [2]: 1630 nM
GI50 at 48 h [5]: 5300 nM

GI50 [1]: 320 nM
GI50 [9]: 500 nM
pIC50 [11]: 8.70
pIC50 [13]: 8.52
pIC50 [14]: 7.41
pIC50 [15]: 6.51
pIC50 [16]: 7.09
pIC50 [17]: 7.14
half-life [18]: 13 min
pIC50 (Cytochrome P450 2C19): < 4.52
pIC50 [19]: 7.64
GI50 [20]: 90 nM
pIC50 [21]: 7.68
pIC50 [22]: 6.86
pIC50 [23]: 7.02
pIC50 [24]: 7.19
pIC50 [3]: 8.40
pIC50 (Cytochrome P450 1A2): 5.70
pIC50 [25]: 8.00
GI50 [4]: 240 nM
GI50 [27]: 3000 nM
pIC50 [28]: 8.22
pIC50 (Cytochrome P450 2C9): < 4.52
pIC50 (Cytochrome P450 3A4): < 4.52
pIC50 [29]: 6.85
pIC50 [6]: 8.85
GI50 [7]: 80 nM
pIC50 (Cytochrome P450 2D6): < 4.52
SMILES: CC(C)n1nc(-c2cc(C3CC3)on2)c2c(N)ncnc21
Activity [8]: Non-toxic
inhibition (INH) [10]: Not Active
RatioGI50 [12]: 50
Activity (TT): 150 CFU
GI50 at 240 h [2]: 13700 nM
Activity [26]: Non-toxic
GI50 at 48 h [5]: > 10000 nM
